Data published in PMC8699473, “An Easily Expandable Multi-Drug LC-MS Assay for the Simultaneous Quantification of 57 Oral Antitumor Drugs in Human Plasma” (Cancers, 2021).

Assay: Long-term stability in spiked pooled human plasma

Row | SMILES | Long-term stability, 1 month, -20°C Accuracy [%] (validation standard 2xLLOV) | Long-term stability, 1 month, -80°C Accuracy [%] (validation standard 2xLLOV) | Long-term stability, 2 month, -20°C Accuracy [%] (validation standard 2xLLOV) | Long-term stability, 2 month, -80°C Accuracy [%] (validation standard 2xLLOV) | Long-term stability, 3 month, -20°C Accuracy [%] (validation standard 2xLLOV) | Long-term stability, 3 month, -80°C Accuracy [%] (validation standard 2xLLOV) | Long-term stability, 6 weeks, 4°C, without daylight Accuracy [%] (validation standard 2xLLOV) | Long-term stability, 1 month, -20°C Accuracy [%] (validation standard LLOV) | Long-term stability, 1 month, -80°C Accuracy [%] (validation standard LLOV) | Long-term stability, 2 month, -20°C Accuracy [%] (validation standard LLOV) | Long-term stability, 2 month, -80°C Accuracy [%] (validation standard LLOV) | Long-term stability, 3 month, -20°C Accuracy [%] (validation standard LLOV) | Long-term stability, 3 month, -80°C Accuracy [%] (validation standard LLOV) | Long-term stability, 1 month, -20°C Accuracy [%] (validation standard MOV) | Long-term stability, 1 month, -80°C Accuracy [%] (validation standard MOV) | Long-term stability, 2 month, -20°C Accuracy [%] (validation standard MOV) | Long-term stability, 2 month, -80°C Accuracy [%] (validation standard MOV) | Long-term stability, 3 month, -20°C Accuracy [%] (validation standard MOV) | Long-term stability, 3 month, -80°C Accuracy [%] (validation standard MOV) | Long-term stability, 6 weeks, 4°C, without daylight Accuracy [%] (validation standard MOV) | further results
1 | O=C(c1cc(Cc2n[nH]c(=O)c3ccccc23)ccc1F)N1CCN(C(=O)C2CC2)CC1 [Olaparib] | 100.3% | 98.2% | 103.8% | 103.3% | 99.8% | 103.3% | 96.6% | 112.8% | 110.5% | 115.9% | 115.8% | 111.4% | 115.4% | 95.3% | 92.9% | 97.5% | 96.8% | 97.6% | 96.7% | 107.5% | Long-term stability, 6 weeks, 4°C, without daylight Accuracy [%] (validation standard LLOV): 105.6%; Long-term stability, 1 month, -20°C Accuracy [%] (validation standard ULOV): 99.1%; Long-term stability, 1 month, -80°C Accuracy [%] (validation standard ULOV): 98.1%; Long-term stability, 2 month, -20°C Accuracy [%] (validation standard ULOV): 102.1%; Long-term stability, 2 month, -80°C Accuracy [%] (validation standard ULOV): 101.1%; Long-term stability, 3 month, -20°C Accuracy [%] (validation standard ULOV): 98.9%; Long-term stability, 3 month, -80°C Accuracy [%] (validation standard ULOV): 100.7%; Long-term stability, 6 weeks, 4°C, without daylight Accuracy [%] (validation standard ULOV): 105.6%
2 | C=CC(=O)Nc1cc(Nc2nccc(-c3cn(C)c4ccccc34)n2)c(OC)cc1N(C)CCN(C)C [Osimertinib] | 95.2% | 93.2% | 89.2% | 103.9% | 82.8% | 100.0% | 10.5% | 83.0% | 86.9% | 84.8% | 96.9% | 66.7% | 91.8% | 97.0% | 96.6% | 95.2% | 101.6% | 90.9% | 101.8% | 53.4% | Long-term stability, 6 weeks, 4°C, without daylight Accuracy [%] (validation standard LLOV): 5.4%; Long-term stability, 1 month, -20°C Accuracy [%] (validation standard ULOV): 92.3%; Long-term stability, 1 month, -80°C Accuracy [%] (validation standard ULOV): 93.2%; Long-term stability, 2 month, -20°C Accuracy [%] (validation standard ULOV): 91.4%; Long-term stability, 2 month, -80°C Accuracy [%] (validation standard ULOV): 101.4%; Long-term stability, 3 month, -20°C Accuracy [%] (validation standard ULOV): 88.6%; Long-term stability, 3 month, -80°C Accuracy [%] (validation standard ULOV): 93.8%; Long-term stability, 6 weeks, 4°C, without daylight Accuracy [%] (validation standard ULOV): 41.5%
3 | Cc1[nH]c2ccccc2c1CCNCc1ccc(/C=C/C(=O)NO)cc1 [Panobinostat] | 52.2% | 59.0% | 66.3% | 107.6% | 57.5% | 67.6% | 11.4% | 38.2% | 33.7% | 21.2% | 29.9% | 8.2% | 34.0% | 82.0% | 84.1% | 75.7% | 87.5% | 66.1% | 82.1% | 67.6% | Long-term stability, 1 month, -20°C Accuracy [%] (validation standard ULOV): 89.6%; Long-term stability, 1 month, -80°C Accuracy [%] (validation standard ULOV): 89.9%; Long-term stability, 2 month, -20°C Accuracy [%] (validation standard ULOV): 98.1%; Long-term stability, 2 month, -80°C Accuracy [%] (validation standard ULOV): 99.4%; Long-term stability, 3 month, -20°C Accuracy [%] (validation standard ULOV): 87.5%; Long-term stability, 3 month, -80°C Accuracy [%] (validation standard ULOV): 100.2%; Long-term stability, 6 weeks, 4°C, without daylight Accuracy [%] (validation standard ULOV): 79.4%
